# Laboratory results: patent publication US20140378472A1, “AMORPHOUS VILAZODONE HYDROCHLORIDE, A PROCESS FOR ITS PREPARATION AND PHARMACEUTICAL COMPOSITIONS THEREOF” (RANBAXY LABORATORIES LIMITED, priority 2011, published 2014)
# Assay: storage stability of the amorphous form, followed by XRPD
# Assay type: physicochemical
# Settings: storage at 25° C. and 52% relative humidity (RH) for 24 days; XRPD pattern similar to FIG. 5 (sample of Example 3)
# Procedure: XRPD of the samples were determined by using a Panalytical X'Pert Pro X-Ray Powder Diffractometer in the range 3-40 degree 2 theta and under a tube voltage and current of 45 Kv and 40 mA, respectively. Copper radiation of wavelength 1.54 angstrom and Xceletor detector was used.
smiles,measurement,value
"Cl.N#Cc1ccc2[nH]cc(CCCCN3CCN(c4ccc5oc(C(N)=O)cc5c4)CC3)c2c1 [amorphous vilazodone hydrochloride, 5-{4-[4-(5-cyano-1H-indo1-3-yl)butyl]piperazin-1-yl}-1-benzofuran-2-carboxamide hydrochloride]",polymorphic stability on storage (XRPD),stable and does not convert to any other polymorphic form
